As usually defined, the stoichiometry N is the number of molecules, sites or subunits per partner or assembly.

Two molecules from PMC8913295, “Cryo-EM structure of hexameric yeast Lon protease (PIM1) highlights the importance of conserved structural elements” (The Journal of Biological Chemistry, 2022) can be followed below.

Data set [1] has as its target T1, PIM1 (yeast Lon protease) (Saccharomyces cerevisiae, UniProt P36775).
T1 construct: 109 kDa; hexamer; residues 529-1133 resolved
T1 sequence (P36775 182-1133): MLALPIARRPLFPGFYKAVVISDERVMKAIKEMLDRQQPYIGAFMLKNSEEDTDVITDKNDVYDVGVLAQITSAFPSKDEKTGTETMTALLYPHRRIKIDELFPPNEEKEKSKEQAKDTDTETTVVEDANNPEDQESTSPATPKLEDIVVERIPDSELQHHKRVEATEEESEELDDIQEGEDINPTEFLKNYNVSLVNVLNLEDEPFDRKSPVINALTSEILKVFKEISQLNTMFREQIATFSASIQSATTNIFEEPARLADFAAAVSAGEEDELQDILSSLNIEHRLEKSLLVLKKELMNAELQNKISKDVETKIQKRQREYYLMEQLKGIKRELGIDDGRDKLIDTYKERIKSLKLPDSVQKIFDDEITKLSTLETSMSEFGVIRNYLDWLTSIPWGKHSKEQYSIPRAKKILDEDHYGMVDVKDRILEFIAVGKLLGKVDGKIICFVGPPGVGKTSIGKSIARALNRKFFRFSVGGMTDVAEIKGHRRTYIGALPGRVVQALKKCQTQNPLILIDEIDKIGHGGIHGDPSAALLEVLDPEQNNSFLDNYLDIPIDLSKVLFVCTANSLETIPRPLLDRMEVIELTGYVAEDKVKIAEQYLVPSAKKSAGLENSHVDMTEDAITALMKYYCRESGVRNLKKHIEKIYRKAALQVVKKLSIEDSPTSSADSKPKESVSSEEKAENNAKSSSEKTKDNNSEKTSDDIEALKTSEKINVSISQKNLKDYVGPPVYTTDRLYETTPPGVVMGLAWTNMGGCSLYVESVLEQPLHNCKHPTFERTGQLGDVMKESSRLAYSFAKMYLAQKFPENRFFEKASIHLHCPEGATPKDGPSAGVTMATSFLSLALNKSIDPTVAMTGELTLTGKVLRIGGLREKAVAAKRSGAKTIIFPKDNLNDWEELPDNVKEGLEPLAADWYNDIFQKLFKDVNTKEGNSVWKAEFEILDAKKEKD
Briefly: cryo-EM structure ([…] Å). It counts as binding. To be noted: two seam subunits (ADP1-2) without gamma-phosphate density; no ADP added, 1 mM ATPγS in sample.

Data set [2] concerns the molecule itself. Briefly: cryo-EM structure; WT PIM1 (3 mg/ml) after size-exclusion chromatography, incubated with 1 mM ATPγS on ice for 20 min, plunge-frozen; reconstruction at ~3.2 Å. In general terms: SEC sorts molecules by how far they enter the pores of the column.

With `Nc1ncnc2c1ncn2[C@@H]1O[C@H](COP(=O)(O)OP(=O)(O)O)[C@@H](O)[C@H]1O` [ADP], the “cryo-EM structure (3.2 Å)” value in data set [1] was “do not contain density for a γ-phosphate and are named ADP1 and ADP2”.

B1: mature WT S. cerevisiae PIM1 lacking the mitochondrial targeting sequence (yeast Lon protease) (enzyme, UniProt P36775 182-1133, looked up)
chain: T1 sequence (P36775 182-1133)
notes: residues 529-1133 modelled in the structure; also called WT PIM1; source: E. coli BL21 (DE3) Codon Plus RIPL, purified (Ni-NTA, Superose 6 SEC)
As for B1, the “stoichiometry N” value in data set [2] was found to be 6.
